Experimental data published in article PMC7851449, “An extracellular lipase from Amycolatopsis mediterannei is a cutinase with plastic degrading activity” (Computational and Structural Biotechnology Journal, 2021).

Target: T1, AML (Amycolatopsis mediterranei lipase) (Amycolatopsis mediterranei, UniProt A0A0H3DES9)
T1 construct: gene AMED_7492; recombinant, pET-49b(+), E. coli BL21(DE3) cytosol; glutathione agarose, tag cut off with PreScission protease
Assay: p-nitrophenyl ester hydrolysis assay, relative activity
Type: biochemical
Details: 50 mM Tris pH 7.5, 37 °C, 10 min, 20 mM substrate

T1 sequence (A0A0H3DES9 entry or part of it): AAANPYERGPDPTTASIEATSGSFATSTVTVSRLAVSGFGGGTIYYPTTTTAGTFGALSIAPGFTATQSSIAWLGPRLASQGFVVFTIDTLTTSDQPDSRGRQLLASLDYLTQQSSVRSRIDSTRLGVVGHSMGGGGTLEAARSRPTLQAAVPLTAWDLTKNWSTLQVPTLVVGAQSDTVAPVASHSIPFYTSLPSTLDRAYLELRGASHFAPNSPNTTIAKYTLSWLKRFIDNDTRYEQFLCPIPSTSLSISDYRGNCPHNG

Row | SMILES | relative activity (%) | relative activity (%) (reference substrate for relative activity)
1 | CC(=O)Oc1ccc([N+](=O)[O-])cc1 [p-nitrophenyl acetate] | experimentally low activity of AML observed towards p-nitrophenyl acetate | 
2 | CCCCCCCC(=O)Oc1ccc([N+](=O)[O-])cc1 [p-nitrophenyl octanoate] |  | relative activity (%) was calculated using p-nitrophenyl octanoate (C-8) as the reference, highest activity, substrate
